# Data as given in PMC9821961, “Ring-Modified Histidine-Containing Cationic Short Peptides Exhibit Anticryptococcal Activity by Cellular Disruption” (Molecules, 2022).
# Experiments:
# Experiment in all cases: microbe, parasite or virus in culture
# Conditions in all cases: 48 h
# C. neoformans = format: cell-based, Cryptococcus neoformans
# Description: (§1) Microbial strains: Microbial strains were procured from National Culture Collection of Pathogenic Fungi (NCCPF) at the Postgraduate Institute of Medical Education & Research (PGIMER), Chandigarh and Microbial Type Culture Collection and Gene bank (MTCC) at the Institute of Microbial Technology (IMTECH), Chandigarh, India. Peptides were screened against five different strains of fungi: viz. Candida albicans (NCCPF400034), Candida glabrata (MTCC 3019), Candida parapsilosis (NCCPF 440002), Candida krusei (NCCPF 440002) and Cryptococcus neoformans (NCCPF250316), and five strains of bacteria: viz. Escherichia coli (MTCC 2961), Staphylococcus aureus (MTCC 3160), Enterococcus faecalis (MTCC 439), Streptococcus pyogenes (MTCC 442) and Pseudomonas aeruginosa (MTCC 3542).
# (§2) Growth media: Antifungal susceptibility testing was carried out using standard broth microdilution assays as per the Clinical and Laboratory Standards Institute (CLSI) guidelines for fungi. RPMI 1640 (Sigma), yeast extract, peptone and dextrose (YPED, Himedia) were used as the incubation broths. The cells were diluted to a cell density of 10^3 colony forming unit (CFU/mL) and incubated at 30 °C for 48 h. Furthermore, Muller Hinton (Himedia) media was utilized for bacterial strains and antibacterial activity was evaluated per CLSI guidelines for bacteria. Bacterial cells were diluted to a cell density of 10^5 CFU/mL and incubated at 37 °C for 24 h. Amphotericin B (Himedia, India) and rifampicin (Himedia, India) were used as standard drugs for the evaluation of activity against all the fungal and bacterial strains, respectively.
# (§3) The stock solutions of peptides (2 mg/mL) were prepared in DMSO. Specific amounts of peptide from stock solution were added to a 96-well microtiter plate containing 100 μL of growth media and then serially diluted two-fold. A further 100 μL of growth media containing microbial cells were added to each well and incubated at 30–37 °C for 24–48 h. The optical density (OD) was measured at 600 nm using a BioStack Ready (BioTek Instruments, Winooski, VT, USA) microplate reader to analyze microbial growth inhibition, and IC50 and MIC values were calculated. To visualize the growth and inhibition pattern, a solution of 3-(4,5-dimethylthiazol-2-yl)-2,5-diphenyltetrazolium bromide (MTT) in water was added to the plate and incubated for 2–3 h. MTT reacts with the mitochondrial dehydrogenases, which are present only in a viable cell, to give blue colored formazan crystals. Therefore, a darker color indicates a high number of viable cells; however, non-viable cells appear pale or colorless.
# C. albicans = format: cell-based, Candida albicans
# Description: as §1, §2, §3
# C. glabrata = format: cell-based, Candida glabrata
# Description: as §1, §2, §3
# C. parapsilosis = format: cell-based, Candida parapsilosis
# Description: as §1, §2, §3
# C. krusei = format: cell-based, Candida krusei
# Description: as §1, §2, §3
SMILES,IC50 (C. neoformans) [µg/mL],MIC (C. neoformans) [µg/mL],IC50 (C. albicans) [µg/mL],MIC (C. albicans) [µg/mL],IC50 (C. glabrata) [µg/mL],MIC (C. glabrata) [µg/mL],IC50 (C. parapsilosis) [µg/mL],MIC (C. parapsilosis) [µg/mL],IC50 (C. krusei) [µg/mL],MIC (C. krusei) [µg/mL]
COC(=O)[C@H](Cc1ncn(Cc2cccc(Br)c2)c1I)NC(=O)[C@H](Cc1c[nH]c2ccccc12)NC(=O)OC(C)(C)C [9m],18.63,33.88,>35.2,>64.0,>35.2,>64.0,>35.2,>64.0,>35.2,>64.0
COC(=O)[C@H](Cc1ncn(Cc2cccc(Br)c2)c1I)NC(=O)[C@@H](N)Cc1c[nH]c2ccccc12 [10m],9.23,16.79,>35.2,>64.0,>35.2,>64.0,>35.2,>64.0,>35.2,>64.0
COC(=O)[C@H](Cc1ncn(Cc2ccccc2)c1I)NC(=O)[C@@H](N)Cc1c[nH]c2ccccc12 [10a],17.68,32.15,>35.2,>64.0,>35.2,>64.0,>35.2,>64.0,>35.2,>64.0
COC(=O)[C@H](Cc1ncn(Cc2ccc(C(C)(C)C)cc2)c1I)NC(=O)[C@H](Cc1c[nH]c2ccccc12)NC(=O)OC(C)(C)C [9b],>35.2,>64.0,>35.2,>64.0,>35.2,>64.0,>35.2,>64.0,>35.2,>64.0
COC(=O)[C@H](Cc1ncn(Cc2ccc(C(C)C)cc2)c1I)NC(=O)[C@H](Cc1c[nH]c2ccccc12)NC(=O)OC(C)(C)C [9c],20.39,37.08,>35.2,>64.0,>35.2,>64.0,>35.2,>64.0,>35.2,>64.0
COC(=O)[C@H](Cc1ncn(Cc2cc(F)cc(F)c2)c1I)NC(=O)[C@@H](N)Cc1c[nH]c2ccccc12 [10j],6.09,11.08,>35.2,>64.0,>35.2,>64.0,>35.2,>64.0,>35.2,>64.0
COC(=O)[C@H](Cc1ncn(Cc2cc(F)cc(F)c2)c1I)NC(=O)[C@H](Cc1c[nH]c2ccccc12)NC(=O)OC(C)(C)C [9j],17.73,32.25,>35.2,>64.0,>35.2,>64.0,>35.2,>64.0,>35.2,>64.0
COC(=O)[C@H](Cc1ncn(Cc2cccc(I)c2)c1I)NC(=O)[C@H](Cc1c[nH]c2ccccc12)NC(=O)OC(C)(C)C [9n],23.58,42.87,>35.2,>64.0,>35.2,>64.0,>35.2,>64.0,>35.2,>64.0
COC(=O)[C@H](Cc1ncn(Cc2ccc([N+](=O)[O-])cc2)c1I)NC(=O)[C@H](Cc1c[nH]c2ccccc12)NC(=O)OC(C)(C)C [9h],>35.2,>64.0,>35.2,>64.0,>35.2,>64.0,>35.2,>64.0,>35.2,>64.0
